The source of these data is patent US9981997B2, “Chemical reagents for attaching affinity molecules on surfaces” (ARIZONA BOARD OF REGENTS ON BEHALF OF ARIZONA STATE …, priority 2013, dated 2018).

This data set can be described thus: Stability of linkers, NMR monitoring and storage. The format is physicochemical. As to conditions: for stability by NMR monitoring: pure form and in chloroform, room temperature, at least two days; for storage stability: stored at −78° C. for one year. The source says:
The molecular anchor (3) was synthesized simply by reacting APS (1) with 2-(cyclooct-2-yn-1-yloxy)acetic acid (2) in the presence of 1-ethyl-3-(3-dimethylaminopropyl)carbodiimide (EDC, FIG. 10). The desired product was separated as a white solid by silica gel chromatography with a yield of 60%. The molecular linker for RI (6a, FIG. 4) was synthesized starting from hexaethylene glycol. First, azido-(CH2CH2O)6-Ts (4, Ts=tosyl) was synthesized in a multi-gram scale (Loiseau, F. A. et al. J. Org. Chem. 2004, 69, 639-647; Svedhem, S.; et al. J. Org. Chem. 2001, 66, 4494-4503). The azido-(CH2CH2O)12—OH (5) was prepared in a 71% yield by reacting 4 with sodium hexaethylene glycoxide (3 times excess) that was generated in situ by treating hexaethylene glycol with sodium hydride. In presence of potassium t-butoxide, 5 reacted with divinyl sulfone to furnish the desired product 6a in a yield of 64%. In the same manner, the linker azido-(CH2CH2O)36-vinyl sulfone (6b) was synthesized by reacting azido-dPEG®—alcohol with divinyl sulfone in a yield close to that of 6a (FIG. 5). These two products were characterized with FTIR, NMR, and mass spectroscopy. Although vinyl sulfones may react with azides in presence of CuSO4 and sodium ascorbate, it was determined by NMR monitoring that 6a and 6b were stable both in its pure form and in chloroform at room temperature at least for two days. […] Maleimide is another reactive group that is functionally similar to vinyl sulfone in bioconjugation, but it may be less amenable to coexisting with azide because a [3+2]cycloaddition could spontaneously take place between these two functions in some circumstances. In addition, maleimide can undergo the thiol exchanges and ring hydrolysis (above pH 8), which may complicate outcomes of the conjugating reaction. Thus, vinyl sulfone was chosen as a Michael addition receptor of thiols in this attachment chemistry.

In the case of `C=CS(=O)(=O)CCOCCOCCOCCOCCOCCOCCOCCOCCOCCOCCOCCOCCN=[N+]=[N-]` [6a, 1-Azido-35-(2-(vinylsulfonyl)ethoxy)-3n33^3-undecaoxapentatriacontane], the “stability by NMR monitoring” value is listed as “stable” and the storage stability entry is reported as “no degradation has been observed”.

For the compound `C=CS(=O)(=O)CCOCCOCCOCCOCCOCCOCCOCCOCCOCCOCCOCCOCCOCCOCCOCCOCCOCCOCCOCCOCCOCCOCCOCCOCCOCCOCCOCCOCCOCCOCCOCCOCCOCCOCCOCCOCCN=[N+]=[N-]` [6b, 1-Azido-35-(2-(vinylsulfonyl)ethoxy)-3n105^3-pentatricontaoxaheptahectane], the “stability by NMR monitoring” value is recorded as “stable” and the storage stability entry was “no degradation has been observed”.
